Data: patent US20240262844A1, “PYRIDINIUM SALTS AND METHODS OF USE” (UNIVERSITY OF WYOMING, priority 2023, published 2024)
Where “and” joins values, the source holds several entries; their conditions need not be identical. Equal values may be shown once. Where a name gives a salt, the structure may show the parent alone.

Legend:
[1] = Fluorescence lifetime and emission measurements; type: physicochemical
Method: The emission spectra were generated by excitation of a 10 μM solution of either pyridinium salt 2a or pyridinium salt 2b in H2O. Analyses were performed at 375 nm excitation with an emission slit width of 5 nm and an excitation slit width of 5 nm. The emission wavelength was gathered from 400 nm to 600 nm.
FIGS. 9A-9D show fluorescence decay spectra of pyridinium salts 2a and 2b in selected solvents according to at least one embodiment of the present disclosure. Specifically, FIG. 9A is a fluorescence decay spectrum of pyridinium salt 2a in 1,2-dichloroethane, FIG. 9B is a fluorescence decay spectrum of pyridinium salt 2a in CH3CN, FIG. 9C is a fluorescence decay spectrum of pyridinium salt 2a in H2O, and FIG. 9D is a fluorescence decay spectrum of pyridinium salt 2b in H2O. The fluorescent decay spectra were generated with a 1-10 μM solution of pyridinium salt (10 μM for H2O and 1 μM for other solvents) using a GG420 long pass filter and a 375 nm excitation wavelength. The instrument response factor was measured using a highly diluted solution of LUDOX AS-30 colloidal silica in water and a ND1.0 filter. The concentration of LUDOX and the emission slit width were adjusted until the intensity of the instrument response function (IRF) was similar to the fluorescent decay intensity. The procedure given in the EasyLife X User's Manual was followed.

[2] = biological target: T1, lysozyme (14.3 kDa) (Gallus gallus, UniProt P00698); test: Photochemical labeling of lysozyme (LC/MS); type: biochemical, chicken; details: for irradiation time to complete reactivity: lysozyme labeling
T1 construct: Lysozyme (from chicken egg white, >40,000 units/mg of protein); purchased Sigma Aldrich; host or cells: chicken egg white
Method: General Procedure B: Photochemical Irradiation of Peptides and Proteins: To a 2 mL Pyrex LC/MS vial (Thermo model #03-391-39) were sequentially added solutions containing the desired biomolecule, glutathione (GSH), pyridinium salt, and ammonium acetate (NH4OAc). The resulting solution was diluted to a final volume of 500 μL and then sparged using nitrogen for a minimum of 30 minutes prior to irradiation. The actively sparging solution was then placed in an EvoluChem™ PhotoRedOx Box photoreactor that was equipped with a Kessil, PR160 427 nm LED Lamp and was then irradiated (100% lamp intensity) for the designated time at room temperature while maintaining active sparging. The resultant reaction mixture was then analyzed directly by LC/MS. Analysis of labeling outcomes using LC/MS was performed either by extracted ion chromatogram intensities (method A) or by integrating the area under the peaks associated with peptide content (method B). These values were totaled, and estimated percentages were assigned according to relative intensities of peaks or ion counts.
Labeling of Lysozyme with Pyridinium Salt 2a (Lysozyme-2a Conjugate). Labeling of lysozyme (14.3 kDa) with the pyridinium salt 2a was performed by following general procedure B using the following solutions: lysozyme (27 μL, 182 μM, 10 μM final concentration), pyridinium salt 2a (200 μL, 500 μM, 200 μM final concentration), NH4+OAc (100 μL, 100 mM, pH=6.9, 20 mM final concentration), glutathione (15 μL, 10 mM, 300 μM final concentration), and water (158 μL) with a 100% intensity irradiation time of 60 minutes. The reaction mixture was analyzed directly by LC/MS using method A and was estimated to have proceeded in >95% conversion and a 10.9:1 mono:di labeled ratio and 10% glutathionylation of all unlabeled and labeled protein content was observed.
Labeling of Lysozyme with Pyridinium Salt 2b (Lysozyme-2b Conjugate). Labeling of lysozyme (14.3 kDa) with the pyridinium salt 2b was performed by following general procedure B using the following solutions: lysozyme (19 μL, 262 μM, 10 μM final concentration), 2b (181 μL, 554 μM, 200 μM final concentration), NH4OAc (50 μL, 200 mM, pH=6.9, 20 mM final concentration), glutathione (50 μL, 3 mM, 300 μM final concentration), and water (200 μL) with a 100% intensity irradiation time of 10 minutes. The reaction mixture was analyzed directly by LC/MS using method A and was estimated to have proceeded with 83% conversion. Partial oxidation at biotin obfuscated estimation of both oxidation and glutathionylation. Lysozyme-2b conjugate (retention time (Tr)=2.80-5.17 min).
Labeling of Lysozyme with Pyridinium Salt 2c (Lysozyme-2c Conjugate). Labeling of lysozyme (14.3 kDa) with the pyridinium salt 2c was performed by following general procedure B using the following solutions: lysozyme (19 μL, 262 μM, 10 μM final concentration), pyridinium salt 2c(367 μL, 680 μM, 500 μM final concentration), NH4OAc (50 μL, 200 mM, pH=6.9, 20 mM final concentration), glutathione (50 μL, 3 mM, 300 μM final concentration), and water (14 μL) with a 100% intensity irradiation time of 10 minutes. The reaction mixture was analyzed directly by LC/MS using method A and was estimated to have proceeded with 85% conversion and a 3.7:1 mono:di labeled ratio and 10% glutathionylation of all protein content was observed. Lysozyme-2c conjugate (retention time (Tr)=3.11-5.07 min).
Labeling of Lysozyme with Pyridinium Salt 2d (Lysozyme-2d Conjugate). Labeling of lysozyme (14.3 kDa) with the pyridinium salt 2d was performed by following general procedure B using the following solutions: Lysozyme (16.8 μL, 0.297 mM solution in H2O, final concentration […]), pyridinium salt 2d (91.8 μL, 1.09 mM solution in CH3CN/H2O (2:3), final concentration 200 μM), NH4OAc (50 μL, 200 mM in H2O, final concentration 20 mM, pH 6.9), glutathione (15 μL, 10 mMsolution in H2O, final concentration 300 μM), and water (326.4 μL) with a 100% intensity irradiation time of 20 minutes. […]

T1 sequence (P00698 19-147): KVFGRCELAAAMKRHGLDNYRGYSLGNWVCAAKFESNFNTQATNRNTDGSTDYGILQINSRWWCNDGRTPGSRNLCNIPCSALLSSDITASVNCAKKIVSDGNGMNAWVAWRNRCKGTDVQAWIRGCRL

relative fluorescence quantum yield (ΦF1) pyridinium salt 2b: pyridinium salt 2a ([1]; 10 μM in H2O, 375 nm excitation) | glutathionylation of all unlabeled and labeled protein content ([2]; 200 μM pyridinium salt 2d, 300 μM glutathione, 20 minutes irradiation) | Compound | fluorescence lifetime τ1 ([1]; water, 375 nm excitation) | fluorescence lifetime τ2 ([1]; water, 375 nm excitation) | irradiation time to complete reactivity [2] | fluorescence lifetime τ1 ([1]; 1,2-dichloroethane, 375 nm excitation) [ns] | fluorescence lifetime τ1 ([1]; acetonitrile, 375 nm excitation) [ns] | diffusion distance of the excited state (2a*) ([1]; aqueous systems) [Å] | conversion ([2]; 10 μM lysozyme, 200 μM pyridinium salt 2a, 300 μM glutathione, 20 mM NH4OAc pH 6.9, 427 nm, 60 minutes) | glutathionylation of all unlabeled and labeled protein content ([2]; 200 μM pyridinium salt 2a, 300 μM glutathione, 60 minutes irradiation) [%]
3.3 |  | COc1ccc2cc(-c3cc(C)[n+](N(C)C(=O)OCCCCC[C@H]4SC[C@H]5NC(=O)N[C@H]54)c(C)c3)ccc2c1 (stereo in doubt) [Pyridinium salt 2b, 4-(6-methoxynaphthalen-2-yl)-2,6-dimethyl-1-(methyl(((5-((3aR,4R,6aS)-2-oxohexahydro-1H-thieno[3,4-d]imidazol-4-yl)pentyl)oxy)carbonyl)amino)pyridin-1-ium tetrafluoroborate] | 0.5 ns | 2.8 ns | less than 10 min |  |  |  |  | 
 |  | COC(=O)N(C)[n+]1c(C)cc(-c2ccc3cc(OC)ccc3c2)cc1C [Pyridinium salt 2a, 1-((methoxycarbonyl)(methyl)amino)-4-(6-methoxynapthalen-2-yl)-2,6-dimethylpyridin-1-ium tetrafluoroborate] | 0.2548 ns and 0.3 ns | 3.399 ns and 3.4 ns | about 60 min | 4.1 | 3.3 | ≤ 30 | > 95% and 94% | 10
 | 3% and 2% | COc1ccc2cc(-c3cc(C)[n+](N(C)C(=O)OCCCCCCN=[N+]=[N-])c(C)c3)ccc2c1 [Pyridinium salt 2d, 1-((((6-azidohexyl)oxy)carbonyl)(methyl)amino)-4-(6-methoxynaphthalen-2-yl)-2,6-dimethylpyridin-1-ium tetrafluoroborate] |  |  |  |  |  |  |  | 
